Laboratory results as given in US20240277658A1, “NLRP3 ACTIVATORS FOR USE IN THE TREATMENT OF INFECTIOUS DISEASES OR CANCER BY ACTIVATING NLRP3 INFLAMMASOME” (ALBERT-LUDWIGS-UNIVERSITÄT FREIBURG, priority 2020, published 2024).
Where “and” joins values, the source holds several entries; their conditions need not be identical. Equal values may be shown once. Read-outs that look alike come from different tables or passages of the source. One block for each compound: values may come before it.

Tests used:
BMDCs = assay: LDH release (lytic cell death, pyroptosis) from LPS-primed BMDCs; format: cell-based, mouse; details: for Average (% positive control): LDH release; for cytotoxicity at 50 µM / cytotoxicity at 25 µM / cytotoxicity at 100 µM / cytotoxicity at 20 µM / cytotoxicity at 40 µM / cytotoxicity at 80 µM: Mus musculus, BMDC
In short: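 Mouse BMDCs (7-9 days differentiated, GM-CSF) primed with 50 ng ml^−1 E. coli K12 LPS for 3 hours, then exposed 3 hours to compounds (50 μM unless indicated) or activators (nigericin 5 μM; R837, CL097 100 μM). Lytic death measured as LDH release by colorimetric assay, triplicate wells.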

NLRP3 inflammasome = target: T1, NLRP3 inflammasome (Mus musculus, UniProt Q8R4B8); assay: IL-1β release from LPS-primed BMDCs (ELISA) as readout of NLRP3 inflammasome activation; format: cell-based
T1 construct: endogenous in cells; host or cells: primary mouse bone marrow-derived dendritic cells (BMDCs), LPS-primed
In short: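 NLRP3 inflammasome activation was read out as IL-1β released into the supernatant, measured by ELISA. Murine BMDCs were primed with LPS (50 ng ml^−1, 3 hours), then incubated with compounds for 3 hours, with each condition run in three technical replicates. Nigericin at 5 μM acted as the positive control activator, and IL-1β release was also expressed as a percentage of that control.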

[1] = compound 50 μM, positive control nigericin 5 μM
[2] = compound 50 μM, LPS-primed BMDCs, read-out: Average LDH release (% of max.)
[3] = single replicates, compound 50 μM, LPS-primed BMDCs, read-out: LDH release (% of max.)
[4] = IL-1β release, compound 50 μM, positive control nigericin 5 μM
[5] = compound 50 μM, LPS-primed BMDCs
[6] = single replicates, compound 50 μM, LPS-primed BMDCs

T1 sequence (Q8R4B8 whole entry): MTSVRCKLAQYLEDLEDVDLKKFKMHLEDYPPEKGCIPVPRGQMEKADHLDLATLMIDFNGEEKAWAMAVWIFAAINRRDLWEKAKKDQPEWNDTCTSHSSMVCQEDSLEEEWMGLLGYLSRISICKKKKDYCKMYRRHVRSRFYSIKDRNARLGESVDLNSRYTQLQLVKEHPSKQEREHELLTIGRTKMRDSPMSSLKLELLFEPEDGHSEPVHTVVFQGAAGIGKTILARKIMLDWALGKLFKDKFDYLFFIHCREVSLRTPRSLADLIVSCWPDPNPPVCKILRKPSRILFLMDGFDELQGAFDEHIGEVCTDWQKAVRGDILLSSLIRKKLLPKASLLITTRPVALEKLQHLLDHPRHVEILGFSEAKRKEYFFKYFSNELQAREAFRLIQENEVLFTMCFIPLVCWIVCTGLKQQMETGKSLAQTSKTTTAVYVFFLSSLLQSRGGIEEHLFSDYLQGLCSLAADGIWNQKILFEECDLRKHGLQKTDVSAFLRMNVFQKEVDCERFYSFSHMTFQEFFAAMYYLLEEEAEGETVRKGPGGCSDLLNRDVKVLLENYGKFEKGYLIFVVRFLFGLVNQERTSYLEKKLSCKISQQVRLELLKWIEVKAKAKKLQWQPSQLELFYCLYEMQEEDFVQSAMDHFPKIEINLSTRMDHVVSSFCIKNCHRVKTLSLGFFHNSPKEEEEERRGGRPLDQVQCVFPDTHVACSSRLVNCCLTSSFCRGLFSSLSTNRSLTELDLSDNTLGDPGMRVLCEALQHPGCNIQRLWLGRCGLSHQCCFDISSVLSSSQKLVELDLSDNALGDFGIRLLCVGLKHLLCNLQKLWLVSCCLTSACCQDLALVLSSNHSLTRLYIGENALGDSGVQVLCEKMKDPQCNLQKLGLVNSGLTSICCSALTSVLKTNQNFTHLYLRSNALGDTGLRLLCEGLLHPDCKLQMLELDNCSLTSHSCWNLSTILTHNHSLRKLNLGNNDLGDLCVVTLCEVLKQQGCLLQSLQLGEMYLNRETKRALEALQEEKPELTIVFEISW

SMILES: O=C(NCCc1ccccc1)Nc1ccc2ncccc2c1 [EN11-07, 1-(2-phenylethyl)-3-(quinolin-6-yl)urea]
Average (% positive control) (BMDCs; 25 μM, positive control EN22 25 μM): 27.283 % positive control
Average (% positive control) (BMDCs; 50 μM, positive control EN22 25 μM): 28.451 % positive control
Average (% positive control) (BMDCs; 100 μM, positive control EN22 25 μM): 26.529 % positive control
cytotoxicity at 25 µM (BMDCs; 25 μM, EN11 series table, read-out: Average LDH release (% of max.)): 13.9%
cytotoxicity at 25 µM (BMDCs; 25 μM, individual replicate values, EN11 series table, read-out: LDH release (% of max.)): 13.4%
cytotoxicity at 50 µM (BMDCs; 50 μM, EN11 series table, read-out: Average LDH release (% of max.)): 14.5%
cytotoxicity at 50 µM (BMDCs; 50 μM, individual replicate values, EN11 series table, read-out: LDH release (% of max.)): 14.4%
cytotoxicity at 100 µM (BMDCs; 100 μM, individual replicate values, read-out: LDH release (% of max.)): 11.4%
cytotoxicity at 100 µM (BMDCs; 100 μM, read-out: Average LDH release (% of max.)): 13.5%
Average IL-1β (NLRP3 inflammasome; 25 μM, EN11 series table): 0.000 ng/mL
IL-1β (NLRP3 inflammasome; 25 μM, individual replicate values, EN11 series table): 0.000 ng/mL
Average IL-1β (NLRP3 inflammasome; 50 μM, EN11 series table): 0.000 ng/mL
IL-1β (NLRP3 inflammasome; 50 μM, individual replicate values, EN11 series table): 0.000 ng/mL
Average IL-1β (NLRP3 inflammasome; 100 μM): 0.053 ng/mL
IL-1β (NLRP3 inflammasome; 100 μM, individual replicate values): 0.059 ng/mL and 0.052 ng/mL and 0.049 ng/mL
Average (% positive control) (NLRP3 inflammasome; IL-1β, 25 μM, positive control EN22 25 μM): 0.000 % positive control
Average (% positive control) (NLRP3 inflammasome; IL-1β, 50 μM, positive control EN22 25 μM): 0.000 % positive control
Average (% positive control) (NLRP3 inflammasome; IL-1β, 100 μM, positive control EN22 25 μM): 3.621 % positive control

SMILES: CC(=O)Nc1ccc(NC(=O)Nc2ccccc2)cc1 [L01.109, N-{4-[(phenylcarbamo-yl)amino]phenyl}acet-amide]
Average (% positive control) (BMDCs; [1]): 10.912 % positive control
cytotoxicity at 50 µM (BMDCs; [2]): 7.98%
cytotoxicity at 50 µM (BMDCs; [3]): 8.46%
Average (% positive control) (NLRP3 inflammasome; [4]): 1.269 % positive control
Average IL-1β (NLRP3 inflammasome; [5]): 0.091 ng/mL
IL-1β (NLRP3 inflammasome; [6]): 0.120 ng/mL and 0.083 ng/mL and 0.070 ng/mL

SMILES: N#Cc1ccc(NC(=O)Nc2ccc3ncccc3c2)cc1 [JB011, 1-(4-cyanophenyl)-3-(quinolin-6-yl)urea]
Average (% positive control) (BMDCs; 20 μM, positive control EN22 20 μM): 21.883 % positive control
Average (% positive control) (BMDCs; 40 μM, positive control EN22 20 μM): 24.799 % positive control
Average (% positive control) (BMDCs; 80 μM, positive control EN22 20 μM): 31.296 % positive control
cytotoxicity at 20 µM (BMDCs; 20 μM, individual replicate values, read-out: LDH release (% of max.)): 11.5%
cytotoxicity at 20 µM (BMDCs; 20 μM, read-out: Average LDH release (% of max.)): 11.7%
cytotoxicity at 40 µM (BMDCs; 40 μM, individual replicate values, read-out: LDH release (% of max.)): 12.6%
cytotoxicity at 40 µM (BMDCs; 40 μM, read-out: Average LDH release (% of max.)): 13.2%
cytotoxicity at 80 µM (BMDCs; 80 μM, individual replicate values, read-out: LDH release (% of max.)): 16.4%
cytotoxicity at 80 µM (BMDCs; 80 μM, read-out: Average LDH release (% of max.)): 16.7%
Average IL-1β (NLRP3 inflammasome; 20 μM): 0.576 ng/mL
IL-1β (NLRP3 inflammasome; 20 μM, individual replicate values): 0.562 ng/mL and 0.612 ng/mL and 0.553 ng/mL
Average IL-1β (NLRP3 inflammasome; 40 μM): 0.604 ng/mL
IL-1β (NLRP3 inflammasome; 40 μM, individual replicate values): 0.538 ng/mL and 0.564 ng/mL and 0.711 ng/mL
Average IL-1β (NLRP3 inflammasome; 80 μM): 0.752 ng/mL
IL-1β (NLRP3 inflammasome; 80 μM, individual replicate values): 0.912 ng/mL and 0.737 ng/mL and 0.607 ng/mL
Average (% positive control) (NLRP3 inflammasome; IL-1β, 20 μM, positive control EN22): 29.413 % positive control
Average (% positive control) (NLRP3 inflammasome; IL-1β, 40 μM, positive control EN22): 30.877 % positive control
Average (% positive control) (NLRP3 inflammasome; IL-1β, 80 μM, positive control EN22): 38.413 % positive control

SMILES: CC(C)=CC(=O)Nc1cccc(NC(=O)Nc2ccccc2)c1 [L01.003, 3-methyl-N-{3-[(phen-ylcarbamoyl)amino]-phenyl}but-2-enamide]
Average (% positive control) (BMDCs; [1]): 10.676 % positive control
cytotoxicity at 50 µM (BMDCs; [2]): 7.81%
cytotoxicity at 50 µM (BMDCs; [3]): 6.28%
Average (% positive control) (NLRP3 inflammasome; [4]): 2.301 % positive control
Average IL-1β (NLRP3 inflammasome; [5]): 0.165 ng/mL
IL-1β (NLRP3 inflammasome; [6]): 0.167 ng/mL and 0.153 ng/mL and 0.175 ng/mL

Continued, in another order:

Average (% positive control) (NLRP3 inflammasome; [4]): 2.451 % positive control
Average IL-1β (NLRP3 inflammasome; [5]): 0.176 ng/mL
SMILES: O=C(Nc1ccccc1)Nc1cccc(NC(=O)c2ccoc2)c1 [L01.027, N-{3-[(phenylcarbamo-yl)amino]phenyl}furan-3-carboxamide]
Average (% positive control) (BMDCs; [1]): 9.387 % positive control
cytotoxicity at 50 µM (BMDCs; [2]): 6.87%
cytotoxicity at 50 µM (BMDCs; [3]): 5.2%
IL-1β (NLRP3 inflammasome; [6]): 0.149 ng/mL and 0.197 ng/mL and 0.181 ng/mL

Average (% positive control) (NLRP3 inflammasome; [4]): 15.216 % positive control
Average IL-1β (NLRP3 inflammasome; [5]): 1.091 ng/mL
SMILES: O=C(Nc1ccccc1)Nc1ccc(NC(=O)C2CCOC2)cc1 (stereo not drawn) [L01.101, N-{4-[(phenylcarbamo-yl)amino]phenyl}oxo-lane-3-carboxamide]
Average (% positive control) (BMDCs; [1]): 27.161 % positive control
cytotoxicity at 50 µM (BMDCs; [2]): 19.9%
cytotoxicity at 50 µM (BMDCs; [3]): 19.4%
IL-1β (NLRP3 inflammasome; [6]): 1.160 ng/mL and 1.071 ng/mL and 1.041 ng/mL

Average (% positive control) (NLRP3 inflammasome; [4]): 3.211 % positive control
Average IL-1β (NLRP3 inflammasome; [5]): 0.230 ng/mL
SMILES: CS(=O)(=O)c1cc(NC(=O)Nc2ccccc2)ccc1Cl [L01.035, 3-(4-chloro-3-methane-sulfonylphenyl)-1-phenylurea]
Average (% positive control) (BMDCs; [1]): 11.044 % positive control
cytotoxicity at 50 µM (BMDCs; [2]): 8.08%
cytotoxicity at 50 µM (BMDCs; [3]): 8.46%
IL-1β (NLRP3 inflammasome; [6]): 0.321 ng/mL and 0.189 ng/mL and 0.181 ng/mL
